Earlier results in publication PMC2074382 (British Journal of Cancer, 1996).

Tests used:
[1] = clinical; cited from earlier work
[2] = parameters: method as in Rowinsky et al., 1992; Verweij et al., 1993; conditions: daily x 5 schedule; ref Rowinsky et al., 1992; Verweij et al., 1993; cited from earlier work
[3] = parameters: method as in PMID 5081595, PMID 8137244; conditions: in vitro and in vivo pharmacology; cited from earlier work

| Compound | induced toxicity [1] | dose-limiting toxicity [2] | potency relative to GI147211 (fold less potent) [3] [fold] |
| --- | --- | --- | --- |
| CCc1c2c(nc3ccc(OC(=O)N4CCC(N5CCCCC5)CC4)cc13)-c1cc3c(c(=O)n1C2)COC(=O)[C@]3(O)CC [Irinotecan] | neutropenia in addition to diarrhoea |  |  |
| CC[C@@]1(O)C(=O)OCc2c1cc1n(c2=O)Cc2cc3c(CN(C)C)c(O)ccc3nc2-1 [topotecan] |  | myelosuppression | 2.2 |
